Patent US9163044B2, “Carbon monoxide releasing molecules and uses thereof” (Alfama, Inc., priority 2011, dated 2015)
“Also recorded” adds a separate entry of the source.

Columns and labels:
[1] = tested on: APAP-induced acute liver failure (ALF) model; test: APAP-induced acute liver failure (ALF) model, sublethal (300 mg/kg APAP i.p.); type: in vivo, C57Bl/6 male mice; conditions: for therapeutic activity in acetaminophen induced ALF (in words): mouse, in vivo; for % ALT increase relative to increase with APAP alone Experiment 1 / % ALT increase relative to increase with APAP alone Experiment 2 / Measured ALT values (mean ± S.D.) Experiment 1 / Measured ALT values (mean ± S.D.) Experiment 2: alone or plus NAC (300 mg/kg), at 1 h and 3 h post APAP; for Measured ALT values (mean ± S.D.) Experiment 1 / Measured ALT values (mean ± S.D.) Experiment 2: serum 22 h
Description: Compound 3b was studied in a sublethal model for acetaminophen (APAP)-induced Liver Injury.
ALF was induced in C57Bl/6 male mice with a single dose of acetaminophen (300 mg/kg) by i.p. injection. […] Serum alanine aminotransferase (ALT) was measured 22 h after APAP injection (n=5 mice for each group). […] ALF was induced in C57Bl/6 male mice with a single dose of acetaminophen (300 mg/kg) by i.p. injection. […] Twenty-two hours after APAP injection serum ALT was measured (indicated in FIG. 11A), centrilobular sections of mouse livers were cut and stained with hematoxylin and eosin, and the percentage of liver necrosis was determined. The data indicates a dose-dependent reduction of ALT levels of 9% to 83% relative to APAP control, and a dose-dependent reduction of necrosis of 0% to 56% relative to APAP control.
ALF was induced in C57Bl/6 male mice with a single dose of acetaminophen (300 mg/kg) by i.p. injection. […] Alanine aminotransferase (ALT) was measured 22 h after APAP injection (n=4 or n=5 mice for each group).
ALF was induced in C57Bl/6 male mice with a single dose of acetaminophen (300 mg/kg) by i.p. injection. […] Twenty-two hours after APAP injection, serum ALT was measured (indicated in FIGS. 12A-12B), centrilobular sections of mouse livers were cut and stained with hematoxylin and eosin, and the percentage of liver necrosis was determined.
ALF was induced in C57Bl/6 male mice with a single dose of acetaminophen (300 mg/kg) by i.p. injection.
FIG. 14 depicts the effect of late treatment with Compound 3b on serum ALT in ALF model. ALF was induced in C57Bl/6 male mice with a single dose of acetaminophen (300 mg/kg) by i.p. injection. At sixteen hours after APAP injection, the animals were treated with different doses of Compound 3b (0.3, 3, 30 or 60 mg/kg). Alanine aminotransferase (ALT) was measured 22 h after APAP injection (n=4 or n=5 mice for each group).
ALF was induced in C57Bl/6 male mice with a single dose of acetaminophen (300 mg/kg) by i.p. injection. […] Experiments 1 and 2 represent two independent experiments. Alanine aminotransferase (ALT) was measured 22 h after APAP injection (n=4 or n=5 mice for each group). The ALT levels and the respective percentage of ALT increase, relative to the increase observed in mice injected with APAP alone, are presented in Table 7.
ALF was induced in C57Bl/6 male mice with a single dose of acetaminophen (300 mg/kg) by i.p. injection. […] Twenty-two hours after APAP injection, serum ALT was measured and centrilobular sections of mouse livers were cut and stained with hematoxylin and eosin.

[2] = preliminary safety studies in mice; type: in vivo; conditions: doses up to 1 g/kg
[3] = in vitro metabolism study: decay on incubation with liver microsomes; type: in vitro ADME; conditions: one hour / 60 minutes incubation
Description: Sixty percent decay could release up to 1.8 molar equivalents of CO. […] Therefore liver microsomes accelerate the decomposition of the compound. […] Microsomes were incubated with Compound 1b using closed vials to enable quantitative measurement of the released CO. As a control, Compound 1b was incubated under similar conditions in the absence of microsomes.
In an in vitro metabolism study of the CO release kinetics of Compound 3b, it was determined that 80% of Compound 3b decayed in 60 minutes incubation with liver microsomes. In order to investigate if this accelerated decomposition of Compound 3b in the presence of microsomes was inducing a faster CO release from the compound, the CO release profile of Compound 3b in the presence of liver microsomes was determined. Microsomes were incubated with Compound 3b using closed vials to enable quantitative measurement of the released CO. As a control, Compound 3b was incubated under similar conditions in the absence of microsomes. […] The initial rate of CO release is 0.0297 CO equivalents (297.22 pmol) per minute in the presence of microsomes and 0.0072 CO equivalents (72.265 pmol) per minute in the absence of microsomes.

[4] = tested on: lethal APAP liver failure model; test: lethal APAP liver failure model (500 mg/kg APAP i.p.), survival; conditions: 2×120 mg/kg, 1 h and 3 h or 3 h and 5 h after APAP (500 mg/kg); 4 days
Description: Compound 3b was tested in a lethal APAP liver failure model (see, e.g. Imaeda et al. J Clin Invest (2009) 119:305-14).
Male C57BL/6 mice fasted overnight to increase CyP450 activity. APAP dosed i.p. at 500 mg/kg. Survival monitored over 3 to 5 days.
FIGS. 18A-18B depicts the survival curve of C57BL/6 mice injected (i.p.) with 500 mg/kg of APAP and treated with Compound 3b. Mice were fasted overnight and APAP was administered afterward (n=15). Compound 3b was administered at a dose of 120 mg/kg at 1 h and 3 h (A) or at 3 h and 5 h (B) after APAP administration. Mice survival was monitored for 4 days.
Mice were fasted overnight and APAP was administered afterward (n=15). Compound 3b was administered at a dose of 120 mg/kg (ip) at +3 h or +4 h after APAP administration. Another group of mice received NAC (150 mg/kg, ip) at +1 h after APAP. The remaining two groups are administered in NAC+ Compound 3b combination mode; one group of mice was administered with NAC (150 mg/kg, ip) at +1 h plus Compound 3b (120 mg/kg, ip)+3 h and other with Compound 3b (150 mg/kg, ip) at +1 h plus Compound 3b (120 mg/kg, ip)+4 h. Mice survival was monitored for 4 days.

[5] = tested on: murine partial hepatectomy model; test: liver regeneration, murine partial (70%) hepatectomy model; type: in vivo, mice; conditions: 2×100 mg/kg
Description: Liver regeneration in the murine partial hepatectomy model to test for regenerative activity. Model: partial (70%) liver resection in mice and follow rate of regeneration.
FIG. 22 depicts the effect of Compound 3b in a model of liver regeneration. Animals were anesthetized and 70% of the liver was resected, corresponding to the left and median liver lobes. Compound 3b was administered (2×100 mg/kg) 1 h before and 1 h after surgery. Two days later, animals were sacrificed, livers harvested, weighed, and stained for phospho histone H3 (PH3, a specific marker for cell division).

[6] = CO released from Compound 3b in phosphate buffer pH 7.4 alone or with human or rat microsomes (FIG. 8); type: in vitro ADME; conditions: 37° C.
Description: The vials were closed and after mixing, the samples were warmed to 37° C. for 5 minutes before an aliquot (25 μL, 0.5 mg protein content) of rat liver microsomes (BD, Cat. No. 452511) or human liver microsomes (BD, Cat. No. 452161) was added to each vial. In parallel analogous vials with all the reagents except the microsomes were prepared. Due to the light-sensitivity of the molybdenum compounds, the reactions were performed in the dark. The samples were incubated at 37° C. and gas samples of the headspace (from 100 μL to 500 μL) of the vials were removed with a gas-tight syringe after 5, 10, 15, 30, and 60 minutes (in some cases samples were also taken at 1, 2, 3 or 4 minutes) upon microsomes addition. The gas samples were then injected into empty sealed vials (8 mL volume) and the amount of CO present in the vials was measured using GC-RCP.
FIG. 8 depicts the amount of CO released from Compound 3b, expressed in equivalents of CO, in phosphate buffer pH 7.4 (“buffer”), phosphate buffer pH 7.4 in the presence of human microsomes (“human”) or rat microsomes (“rat”). The assay was performed in closed vials during 1 hour at 37° C. A gas aliquot was removed from the air space of the vials and CO concentration was determined by GC-RCP at different time points.

CC([N+]#[C][Mo-6]([C]#[O+])([C]#[O+])([C]#[O+])([C]#[N+]C(C)C(=O)O)[C]#[N+]C(C)C(=O)O)C(=O)O (stereo not drawn) [Compound 2b, tricarbonyl[tris(2-isocyanopropionic acid)]Mo(0)]
therapeutic activity in acetaminophen induced ALF (in words) [1]: still retains therapeutic activity although lower than that of Compound 3b

[C-]#[N+]C(C)(C)C(=O)O.[C-]#[N+]C(C)(C)C(=O)O.[C-]#[N+]C(C)(C)C(=O)O.[C-]#[O+].[C-]#[O+].[C-]#[O+].[Mo] [Compound 3b, tricarbonyl[tris(2-isocyano-2-methyl-propionic acid)]Mo(0)]
toxicity in preliminary safety studies [2]: no toxicity
effect of a single dose administered 16 hours after APAP injury (in words) ([1]; 0.3, 3, 30 or 60 mg/kg at 16 h, ALT 22 h after APAP): dose-dependent therapeutic effect
therapeutic effect, 2 doses given at 1 h and 3 h after APAP (in words) ([1]; 2×60 and 2×120 mg/kg, NAC 2×300 mg/kg, evaluated 22 h post APAP): highly therapeutic; also recorded: as effective as NAC
% ALT increase relative to increase with APAP alone Experiment 1 ([1]; 3b 2 × 60 mg/kg): 57.2 ± 14.5%
% ALT increase relative to increase with APAP alone Experiment 2 ([1]; 3b 2 × 60 mg/kg): 45.0 ± 8.1%
Measured ALT values (mean ± S.D.) Experiment 1 ([1]; 3b 2 × 60 mg/kg): 5180 ± 1312 U/L
Measured ALT values (mean ± S.D.) Experiment 2 ([1]; 3b 2 × 60 mg/kg): 5500 ± 987 U/L
% ALT increase relative to increase with APAP alone Experiment 1 ([1]; 3b 2 × 120 mg/kg): 49.5 ± 7.0%
% ALT increase relative to increase with APAP alone Experiment 2 ([1]; 3b 2 × 120 mg/kg): 35.7 ± 7.6%
Measured ALT values (mean ± S.D.) Experiment 1 ([1]; 3b 2 × 120 mg/kg): 4480 ± 630 U/L
Measured ALT values (mean ± S.D.) Experiment 2 ([1]; 3b 2 × 120 mg/kg): 4360 ± 926 U/L
liver histology: necrosis (in words) ([1]; Compound 3b 2×100 or 2×300 mg/kg, NAC 2×300 mg/kg, at one and three hours after APAP, 22 h): very little if any necrosis
effect on serum ALT when given late after APAP injury (in words) ([1]; five hours and seven hours after APAP, NAC 150 mg/kg, Compound 3b 120 mg/kg): therapeutic
therapeutic activity in acetaminophen induced ALF (in words) [1]: strong therapeutic activity
compound decayed on incubation with liver microsomes [3]: 80%
survival [4]: 100%
liver weight increase 48 h after resection ([5]; 1 h before and 1 h after surgery, control 89%): 102%
PH3 staining (cell division), in words ([5]; two days after resection): increases PH3 staining
factor by which microsomes accelerate CO release ([6]; human or rat microsomes versus buffer, 1 hour): 4.0-5.5
CO released in pH 7.4 buffer in 1 hour ([6]; phosphate buffer pH 7.4, no microsomes): 0.25 mol equiv. of CO

tricarbonyl[tris(isocyanoacetic acid)]Mo(0) [Compound 1b]
reduction of necrosis relative to APAP control (in words) ([1]; 60 mg/kg, 1 h after APAP): does not reduce necrosis
therapeutic activity in acetaminophen induced ALF (in words) [1]: lack of activity
compound decayed on incubation with liver microsomes [3]: 60%
